How the values were obtained:
B16a Tumor Cells = assay: "Spontaneous" lung metastasis from an in vivo subcutaneous implant of B16a tumor cells; parameters: species or system mouse; settings: mice; for % of Control (mean number of pulmonary metastases): oral once daily, 27 days, x ± SEM, N = 10, control = 100%; for reduction of spontaneous metastasis (in words): chronic oral administration
From the text: B16 amelanotic melanoma (B16a) and Walker 256 L-Pam carcinosarcoma were obtained from the Division of Cancer Treatment, Animal and Human Tumor Bank, Mason Research Institute, Worcester, Mass. Tumors were passaged four times after receipt in syngeneic C57BL/6J male mice (B16a) or allogenic Sprague Dawley rats (Walker 256 L-Pam). Passaging involved subcutaneous implantations of tumor pices (diced to approximately 2×2 MM) into the right auxiliary region using a 18 gauge needle. Mice weighing approximately 20 grams (4 to 5 weeks old) were used to passage the B16a cell line and female rats were used to passage the Walker 256 L-Pam cell line. Animals were housed under identical conditions of temperature, feeding, photoperiod, etc. The transplanted tumors were allowed to grow for approximately 14 days following implantation.
The B16a tumor cells, obtained by the previously described procedure of tumor dispersion and tumor cell elutriation were used to test the antimetastatic effect of BAY e 9736.
The effect of chronic oral administration of BAY e 9736 on spontaneous lung metastasis from a primary subcutaneous B16a tumor was also determined. A 16 mg portion of BAY e 9736 was dissolved in 1 ml of PEG-400 and diluted 1:8, 1:32, 1:80, and 1:800. Syngeneic C56BL/6J mice were injected subcutaneously with 1×10^5 B16a tumor cells in 0.1 ml prepared as previously described. Starting one day post tumor injection, the mice were administered BAY e 9736 orally once a day for 27 days with 0.1 ml of the diluted BAY e 9736. The control and treated mice were housed under identical conditions of temperature, feeding and photoperiod, etc. The mice were sacrificed 28 days after the injection of tumor cells and the lungs were removed in Bouin's solution and visible bilateral metastasis counted.

Platelet = assay: ADP induced platelet aggregation; format: cell-based, human; settings: for effect on ADP induced platelet aggregation (in words): higher concentrations
Procedure: Blood (45 ml) was drawn from the […] vein of healthy, fasted, aspirin free (at least two weeks) human volunteers into a plastic syringe containing 5 ml of 4.8% dextrose with 50 U/ml heparin buffered by 25 mM HEPES, pH 7.5. An 18 gauge needle was used to prevent hemolysis. The heparinized blood was gently mixed by inverting the syringe five times and then the blood was transfused into two 40 ml plastic centrifuge tubes and centrifuged for 10 min at 163×g. The resulting platelet rich plasma (PRP; the supernatant fraction) was decanted using an adjustable SMI pipette set at 6 ml. Platelet poor plasma (PPP) was prepared by centrifugation of PRP for 10 min at 1086×g. Platelet poor plasma was used to standardize the platelet concentration in PRP to 3×10^8 /ml. Platelet concentrations were determined using a Coulter Model ZBI cell counter.
Platelet aggregation was measured photometrically using a Sienco Model DP-247E dual channel aggregometer and recorded on a Sienco Model B-5000 dual channel recorder. Aliquots of PRP (250 microliters at 3×10^8 platelets/ml) were transferred into aggregometry cuvettes and stirred at a constant speed of 800 RPM at 37° C. Platelet aggregation studies were designed and run as individually controlled samples. BAY e 9736 was dissolved in either PEG-400 or […] (DMSO).
BAY e 9736 in PEG-400 alone was aliquoted into the cuvettes prior to the addition of the PRP. Immediately after the addition of the PRP, the cuvettes were placed into the aggregometer. After two minutes (to allow for the stabilization of the platelet preparation and mixing of the BAY e 9736), ADP or tumor cells were added in 20 microliter aliquots to induce platelet aggregation.
Adenosine diphosphate (ADP) was prepared as a 1 mM solution (in distilled water). A 25 microliter aliquot was added to control and BAY e 9736 treated cuvettes containing PRP. The ADP concentration used induces rapid, monophasic platelet aggregation.

## COCCOC(=O)C1=C(C)NC(C)=C(C(=O)OC(C)C)C1c1cccc([N+](=O)[O-])c1 (stereo not drawn) [BAY e 9736, 1,4-dihydro-2,6-dimethyl-4-(3' nitrophenyl)-pyridine-3-(beta-methyoxyethylester)-5-(isopropyl ester)]
B16a Tumor Cells; 0.1 mg/kg
  % of Control (mean number of pulmonary metastases): 68 ± 14%
B16a Tumor Cells; 1.0 mg/kg
  % of Control (mean number of pulmonary metastases): 45 ± 9%
B16a Tumor Cells; 2.5 mg/kg
  % of Control (mean number of pulmonary metastases): 33 ± 22%
B16a Tumor Cells; 10.0 mg/kg
  % of Control (mean number of pulmonary metastases): 28 ± 7%
B16a Tumor Cells; 80.0 mg/kg
  % of Control (mean number of pulmonary metastases): 19 ± 6%
B16a Tumor Cells
  reduction of spontaneous metastasis (in words): effective in decreasing the number of spontaneous metastasis as compared to the control mice
B16a Tumor Cells; listed as nimodipine
  reduction of spontaneous metastasis (in words): significantly reduce spontaneous metastasis
Platelet; 0.0015 mg/ml final, 0.1 mM ADP
  % Inhibition of ADP Induced Platelet Aggregation: No effect
Platelet; 0.004 mg/ml final (second line so printed, below 0.0015), 0.1 mM ADP
  % Inhibition of ADP Induced Platelet Aggregation: No effect
Platelet; 0.004 mg/ml final, 0.1 mM ADP
  % Inhibition of ADP Induced Platelet Aggregation: No effect
Platelet; Homo sapiens, Platelet, 0.015 mg/ml final, 0.1 mM ADP, printed "No effect to 12%"
  inhibition at 15 µg/mL: ≤ 12%
Platelet; Homo sapiens, Platelet, 0.04 mg/ml final, 0.1 mM ADP, x ± SEM, n = 3
  inhibition at 40 µg/mL: 31 ± 6.2%
Platelet; Homo sapiens, Platelet, 0.15 mg/ml final, 0.1 mM ADP, x ± SEM, n = 3
  inhibition at 150 µg/mL: 58 ± 11%
Platelet; Homo sapiens, Platelet, 0.4 mg/ml final, 0.1 mM ADP, x ± SEM, n = 3
  inhibition at 400 µg/mL: 69 ± 7.5%
Platelet
  effect on ADP induced platelet aggregation (in words): able to significantly inhibit this aggregation
Platelet; listed as nimodipine
  effect on ADP induced platelet aggregation (in words): greatly inhibit platelet aggregation induced by tumor cells and ADP

— US4690935A, “Inhibition of tumor growth and metastasis with calcium channel blocker compounds” (Wayne State University, priority 1983, dated 1987)
